Laboratory results taken from ChEMBL document CHEMBL4706689, “Synthesis and antifungal activity of polycyclic pyridone derivatives with anti-hyphal and biofilm formation activity against Candida albicans” (2021).
Calls of active or inactive are those of the source. The rule behind the calls is not given here.

Key:
Candida albicans [1] = assay: Inhibition of hyphal formation in Candida albicans SC5314 cultured in spider medium assessed as reduction in hyphal length at 25 ug/ml relative to control; format: functional
Candida albicans [2] = assay: Inhibition of biofilm formation in Candida albicans SC5314 by XTT assay; format: functional, organism-based
Candida albicans [3] = assay: Inhibition of hyphal formation in Candida albicans SC5314 cultured in spider medium assessed as reduction in hyphal length; format: functional, organism-based; settings: dose 3.12-25 µg/ml
Candida albicans [4] = assay: Inhibition of biofilm formation in Candida albicans SC5314 at 25 ug/ml by XTT assay relative to control; format: functional
Candida albicans [5] = assay: Inhibition of biofilm formation in Candida albicans SC5314 at 6.25 to 25 ug/ml by XTT assay; format: functional, organism-based; settings: dose 6.25-25 µg/ml

C[C@H]1Oc2c(-c3cccs3)c(Cl)[nH]c(=O)c2[C@H]2c3ccccc3OC[C@H]21
inhibition at 25 µg/mL (Candida albicans [1]): 30%

CC(C)=CC[C@]1(C)Oc2c(-c3ccc(C)cc3)c(Cl)[nH]c(=O)c2[C@H]2c3ccccc3OC[C@H]21
inhibition at 25 µg/mL (Candida albicans [1]): 30%

Cc1ccc(-c2c(Cl)[nH]c(=O)c3c2O[C@H](C)[C@@H]2COc4ccccc4[C@H]32)cc1
inhibition at 25 µg/mL (Candida albicans [1]): > 50%
inhibition (Candida albicans [2]): inactive
inhibition (Candida albicans [3]): Dose-dependent effect

CC1(C)C=Cc2c(c(-c3ccccc3)c[nH]c2=O)O1
inhibition at 25 µg/mL (Candida albicans [1]): > 50%
inhibition at 25 µg/mL (Candida albicans [4]): 18.7%
inhibition (Candida albicans [3]): Dose-dependent effect

CC1(C)C=Cc2c(c(-c3ccccc3)c(Cl)[nH]c2=O)O1
inhibition at 25 µg/mL (Candida albicans [1]): 30%

C[C@H]1CC[C@H]2[C@H](C1)c1c(c(-c3cccs3)c(Cl)[nH]c1=O)OC2(C)C
inhibition at 25 µg/mL (Candida albicans [1]): 30%

CC1(C)C=Cc2c(c(-c3cccs3)c(Cl)[nH]c2=O)O1
inhibition (Candida albicans [5]): Active
inhibition at 25 µg/mL (Candida albicans [1]): > 50%
inhibition (Candida albicans [3]): Dose-dependent effect

CC(C)=CCC1(C)C=Cc2c(c(-c3ccc(C)cc3)c(Cl)[nH]c2=O)O1 (stereo not drawn)
inhibition at 25 µg/mL (Candida albicans [1]): 30%

Cc1ccc(-c2c[nH]c(=O)c3c2OC(C)(C)C=C3)cc1
inhibition at 25 µg/mL (Candida albicans [1]): > 50%
inhibition at 25 µg/mL (Candida albicans [4]): 17.9%
inhibition (Candida albicans [3]): Dose-dependent effect

Cc1ccc(-c2c(Cl)[nH]c(=O)c3c2OC(C)(C)C=C3)cc1
inhibition at 25 µg/mL (Candida albicans [1]): 30%
